The source of these data is US12441733B2, “Substituted 2,4-dioxotetrahydropyrimidines as intermediates in the synthesis of bruton's tyrosine kinase inhibitors” (Novartis AG, priority 2018, dated 2025).

For this experiment, the system named is OCI-LY3 cells. In words: Resazurin cell viability (proliferation) assay in OCI-LY3 DLBCL cells. In kind it is cell-based. Particulars: Homo sapiens, OCI-LY3 cells (BTK independent), 72 h, 50% growth inhibition vs vehicle, read-out: OCI-LY3 Prol GI50. The method, boiled down: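 Cells were seeded at 1×10^4 per well and dosed 3 h later: 8-point 1:4 dilutions from 10 μM (OCI-LY3), in triplicate, 72 h at 37 °C. Resazurin (13 μg/ml final) was added for the last 2 h and fluorescence read at 530/600 nm. GI50 is relative to DMSO vehicle, typically from ≥2 independent experiments.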
(Resazurin is reduced to fluorescent resorufin, in cell work by metabolically active cells.)

The term GI50 denotes the concentration at which growth is held to half of that of the control.

For the compound `COc1ccc(C(=O)NCCN2CCC3(CC2)CCN(Cc2ccc(-c4cc5c(-c6cc(F)cc(NC(=O)c7ccc(C(C)(C)O)cc7F)c6C)ncnc5[nH]4)cc2)CC3)cc1N1CCC(=O)NC1=O` [Compound 44, N-(3-(6-(4-((9-(2-(3-(2,4-dioxotetrahydropyrimidin-1(2H)-yl)-4-methoxybenzamido)ethyl)-3,9-diazaspiro[5.5]undecan-3-yl)methyl)phenyl)-7H-pyrrolo[2,3-d]pyrimidin-4-yl)-5-fluoro-2-methylphenyl)-2-fluoro-4-(2-hydroxypropan-2-yl)benzamide], the GI50 turned out to be 3.05 µM.
For the compound `Cc1c(NC(=O)c2ccc(C(C)(C)O)cc2F)cc(F)cc1-c1ncnc2[nH]c(-c3ccc(CCN4CCC5(CC4)CCN(C(=O)c4ccc(F)c(N6CCC(=O)NC6=O)c4)CC5)cc3)cc12` [Compound 47, N-(3-(6-(4-(2-(9-(3-(2,4-dioxotetrahydropyrimidin-1(2H)-yl)-4-fluorobenzoyl)-3,9-diazaspiro[5.5]undecan-3-yl)ethyl)phenyl)-7H-pyrrolo[2,3-d]pyrimidin-4-yl)-5-fluoro-2-methylphenyl)-2-fluoro-4-(2-hydroxypropan-2-yl)benzamide], the GI50 worked out at 4.58 µM.
